Data from US20240016860A1, “BACILLUS COAGULANS FOR IMPROVING CONSTIPATION AND APPLICATION THEREOF” (Thankcome Biological Science and Technology (Suzhou) Co., …, priority 2022, published 2024).

What was measured:
Format in all cases: in vivo, Kunming mice
gastrin (Gas) = test: Serum gastrointestinal hormone ELISA: Gas; conditions: Bis group: bisacodyl 100 mg/kg per day
Protocol: (§1) After a week of adaptive culture, 40 mice are randomly divided into 5 groups, with 8 mice in each group, namely the group of normal control (NC), group of model (GM), BC69 low-dose group (BC-L), BC69 high-dose group (BC-H) and bisacodyl drug treatment group (Bis). During the experiment, saline gavage of 0.25 mL is administered daily to NC and GM mice; from day 1 to day 4, all mice except NC mice are additionally gavaged with loperamide hydrochloride suspension (1 mg/mL) 0.25 mL twice daily (at 9:00 a.m. and 2:00 p.m. respectively) to induce a functional constipation model of mice; after gavage on day 4, all mice are fasted from food but not water for 16 h; from day 5 to day 11, […] are gavaged with Bacillus coagulans BC suspension 0.25 mL every day, where the concentrations are 1.0×10^8 colony-forming units per milliliter (CFU/mL) and 4.0×10^9 CFU/mL respectively; mice of group Bis are gavaged with bisacodyl aqueous solution at 100 milligrams per kilogram (mg/kg) per day; after the completion of gavage on day 11, all groups of mice are fasted from food but not water for 16 h. […]
(§2) The contents of endothelin (ET), gastrin (Gas), motilin (MTL), substance P (SP), somatostatin (SS) and vasoactive intestinal peptide (VIP) in serum are determined according to the instructions of the enzyme-linked immuno sorbent assay (ELISA) kit.

eNOS mRNA = test: RT-qPCR mRNA expression in small intestine: eNOS; conditions: 2^−ΔΔCt, actin reference, Bis group: bisacodyl 100 mg/kg per day
Protocol: (§3) After a week of adaptive culture, 40 mice are randomly divided into 5 groups, with 8 mice in each group, namely the group of normal control (NC), group of model (GM), BC69 low-dose group (BC-L), BC69 high-dose group (BC-H) and bisacodyl drug treatment group (Bis). […]
(§4) Messenger ribonucleic acid (mRNA) expressions of COX-2, c-kit, NFκB, iNOS, eNOS, nNOS and SCF are detected by RT-qPCR, and total RNA is extracted and complementary deoxyribonucleic acid (cDNA) reverse transcription is carried out according to the instructions of RNA extraction kit and cDNA reverse transcription kit; then a microspectrophotometer is used to identify the purity of the RNA at 260/280 nanometers (nm). Actin (actin) is used as a standardized internal reference for RT-qPCR analysis, and final RT-qPCR product expression is determined using the 2^−ΔΔCt method.

iNOS mRNA = test: RT-qPCR mRNA expression in small intestine: iNOS; conditions: 2^−ΔΔCt, actin reference, Bis group: bisacodyl 100 mg/kg per day
Protocol: as §3, §4

[1] = test system: vasoactive intestinal peptide (VIP); test: Serum gastrointestinal hormone ELISA: VIP; conditions: Bis group: bisacodyl 100 mg/kg per day
Protocol: as §1, §2

nNOS mRNA = test: RT-qPCR mRNA expression in small intestine: nNOS; conditions: 2^−ΔΔCt, actin reference, Bis group: bisacodyl 100 mg/kg per day
Protocol: as §3, §4

substance P (SP) = test: Serum gastrointestinal hormone ELISA: SP; conditions: Bis group: bisacodyl 100 mg/kg per day
Protocol: as §1, §2

NFκB mRNA = test: RT-qPCR mRNA expression in small intestine: NFκB; conditions: 2^−ΔΔCt, actin reference, Bis group: bisacodyl 100 mg/kg per day
Protocol: as §3, §4

motilin (MTL) = test: Serum gastrointestinal hormone ELISA: MTL; conditions: Bis group: bisacodyl 100 mg/kg per day
Protocol: as §1, §2

endothelin-1 (ET-1) = test: Serum gastrointestinal hormone ELISA: ET-1; conditions: Bis group: bisacodyl 100 mg/kg per day
Protocol: as §1, §2

COX-2 mRNA = test: RT-qPCR mRNA expression in small intestine: COX-2; conditions: 2^−ΔΔCt, actin reference, Bis group: bisacodyl 100 mg/kg per day
Protocol: as §3, §4

c-kit mRNA = test: RT-qPCR mRNA expression in small intestine: c-kit; conditions: 2^−ΔΔCt, actin reference, Bis group: bisacodyl 100 mg/kg per day
Protocol: as §3, §4

SCF mRNA = test: RT-qPCR mRNA expression in small intestine: SCF; conditions: 2^−ΔΔCt, actin reference, Bis group: bisacodyl 100 mg/kg per day
Protocol: as §3, §4

somatostatin (SS) = test: Serum gastrointestinal hormone ELISA: SS; conditions: Bis group: bisacodyl 100 mg/kg per day
Protocol: as §1, §2

Structure (SMILES): CC(=O)Oc1ccc(C(c2ccc(OC(C)=O)cc2)c2ccccn2)cc1 [Bis, bisacodyl]
- Gas (gastrin (Gas)): 10.09 ± 0.69 pg/mL
- mRNA expression levels eNos (eNOS mRNA): 0.03 ± 0.00
- mRNA expression levels iNos (iNOS mRNA): 0.04 ± 0.00
- VIP [1]: 36.13 ± 2.37 pg/mL
- mRNA expression levels nNos (nNOS mRNA): 0.04 ± 0.00
- SP (substance P (SP)): 51.60 ± 3.48 pg/mL
- mRNA expression levels NFκB (NFκB mRNA): 2.21 ± 0.84
- MTL (motilin (MTL)): 57.89 ± 2.65 pg/mL
- ET-1 (endothelin-1 (ET-1)): 21.44 ± 1.28 pg/mL
- mRNA expression levels COX-2 (COX-2 mRNA): 0.43 ± 0.05
- mRNA expression levels c-kit (c-kit mRNA): 0.08 ± 0.01
- mRNA expression levels SCF (SCF mRNA): 3.66 ± 0.62
- SS (somatostatin (SS)): 28.09 ± 1.89 pg/mL
